Test results reported in patent US8299262B2, “Pyridylmethyl-sulfonamide compounds” (BASF SE, priority 2007, dated 2012).
Read-outs that look alike come from different tables or passages of the source.

Columns and labels:
[1] = tested on: Phakopsora pachyrhizi; assay: Comparative greenhouse test, curative action against soybean rust Phakopsora pachyrhizi (Use Example 22); assay type: in vivo; conditions: curative spray on soybean, untreated control 100
Procedure: The active compounds were formulated separately or together as a stock solution comprising 25 mg of active compound which was made up to 10 ml using a mixture of acetone and/or dimethyl sulfoxide (DMSO) and the emulsifier Wettol EM 31 (wetting agent having emulsifying and dispersing action based on ethoxylated alkylphenols) in a volume ratio of solvent/emulsifier of 99 to 1. This solution was then made up to 100 ml using water. This stock solution was diluted with the solvent/emulsifier/water mixture described to the active compound concentration given below.
Leaves of potted soybean seedlings were dusted with a suspension of spores of rust of soybean (Phakopsora pachyrhizi). The plants were then placed in a chamber with high atmospheric humidity (90 to 95%), at 23 to 27° C., for 24 hours. During this time, the spores germinated and the germinal tubes penetrated into the leaf tissue. The next day, the infected plants were sprayed to runoff point with an aqueous suspension having the concentration of active compound stated in table 4 (250 ppm). After drying of the sprayed suspension, the test plants were returned to the greenhouse and cultivated at temperatures between 23 and 27° C. and at 60 to 80% relative atmospheric humidity for a further 14 days. The extent of the rust development on the leaves was then determined visually.

[2] = tested on: Pyricularia oryzae; assay type: cell-based; conditions: single compound
[3] = tested on: Alternaria solani; assay: Synergistic mixtures, microtiter test, early blight pathogen Alternaria solani (Use Example 24); assay type: cell-based; conditions: single compound, 0.063 ppm
[4] = tested on: Septoria tritici; assay: Synergistic mixtures, microtiter test, leaf blotch pathogen Septoria tritici (Use Example 26); assay type: cell-based; conditions: single compound, 4 ppm
[5] = tested on: Thielaviopsis basicola; assay: Synergistic mixtures, microtiter test, Thielaviopsis basicola (Use Example 31); assay type: cell-based; conditions: single compound
[6] = tested on: Colletotrichum truncatum; assay: Synergistic mixtures, microtiter test, Colletotrichum truncatum (Use Example 28); assay type: cell-based; conditions: single compound
[7] = tested on: Pyrenophora teres; assay: Synergistic mixtures, microtiter test, net blotch pathogen Pyrenophora teres (Use Example 29); assay type: cell-based; conditions: single compound
[8] = tested on: Gaeumannomyces graminis; assay: Synergistic mixtures, microtiter test, Gaeumannomyces graminis (Use Example 30); assay type: cell-based; conditions: single compound
[9] = tested on: Fusarium culmorum; assay: Synergistic mixtures, microtiter test, Fusarium culmorum (Use Example 27); assay type: cell-based; conditions: single compound
[10] = tested on: Puccinia recondita; assay: Synergistic mixtures, greenhouse, preventative control of brown rust on wheat caused by Puccinia recondita (Use Example 34); assay type: in vivo; conditions: single compound, untreated control 90% disease
Procedure: These percentages were converted into efficacies. An efficacy of 0 means that the growth level of the pathogens corresponds to that of the untreated control; an efficacy of 100 means that the pathogens were not growing.
The expected efficacies of active compound mixtures were determined using Colby's formula [R. S. Colby, Calculating synergistic and antagonistic responses of herbicide combinations, Weeds 15, 20-22 (1967)] and compared with the observed efficacies. E=x+y−x·y/100 Colby's formula • E expected efficacy, expressed in % of the untreated control, when using the mixture of the compounds A and B at the concentration a and b • x efficacy, expressed in % of the untreated control, when using compound A at a concentration of a • y efficacy, expressed in % of the untreated control, when using compound B at a concentration of b A) Microtiter Tests
The spray solutions were prepared in several steps:
The stock solution were prepared as follows: a mixture of acetone and/or dimethylsulfoxide and the wetting agent/emulsifier Wettol, which is based on ethoxylated alkylphenoles, in a relation (volume) solvent-emulsifier of 99 to 1 was added to 25 mg of the compound to give a total of 10 ml. Water was then added to total volume of 100 ml.
This stock solution was diluted with the described solvent-emulsifier-water mixture to the given concentration. The compounds pyraclostrobin, boscalid and epoxiconazole were used as commercial finished formulations and diluted with water to the stated concentration of the active compound.
The first two developed leaves of pot-grown wheat seedling were sprayed to run-off with an aqueous suspension, containing the concentration of active ingredient or their mixture as described below. The next day the plants were inoculated with spores of Puccinia recondita. To ensure the success the artificial inoculation, the plants were transferred to a humid chamber without light and a relative humidity of 95 to 99% and at temperatures between 20 and 24° C. for 24 h. Then, the plants were cultivated for 6 days in a greenhouse chamber at 20 to 24° C. and a relative humidity between 65 and 70%. The extent of fungal attack on the leaves was visually assessed as % diseased leaf area.

[11] = tested on: Phytophthora infestans; assay type: cell-based; conditions: single compound, 0.00025 ppm
[12] = tested on: Fusarium oxysporum; conditions: single compound
[13] = tested on: Septoria glycines; assay: Microtiter test, Septoria glycines (Use Example 7); assay type: cell-based; conditions: 125 ppm; control =100%, day 7
[14] = tested on: Verticillium dahliae; conditions: single compound, 4 ppm

| SMILES | infection in [%] at 250 ppm [1] | Observed efficacy (%) ([2]; 0.25 ppm) | Observed efficacy (%) [3] | Observed efficacy (%) [4] | Observed efficacy (%) ([5]; 16 ppm) | Observed efficacy (%) ([7]; 0.25 ppm) | Observed efficacy (%) ([8]; 0.063 ppm) | Observed efficacy (%) ([9]; 16 ppm) | Observed efficacy (%) ([10]; 16 ppm) | Observed efficacy (%) ([5]; 4 ppm) | Observed efficacy (%) ([7]; 1 ppm) | also measured |
| --- | --- | --- | --- | --- | --- | --- | --- | --- | --- | --- | --- | --- |
| Cc1nccc(CNS(=O)(=O)c2ccc(Oc3ccccc3)cc2)c1C [comparative example 2, reference compound] | 100% |  |  |  |  |  |  |  |  |  |  |  |
| Cc1nccc(CNS(=O)(=O)c2ccc(Oc3ccccn3)cc2)c1C [Example 33] | 5% | 38% | 4% | 22% | 9% | 0% | 4% | 1% | 33% |  |  | Observed efficacy (%) ([6]; 4 ppm): 24%; Observed efficacy (%) ([8]; 0.25 ppm): 21% |
| COC(=O)N(OC)c1ccccc1COc1ccn(-c2ccc(Cl)cc2)n1 [Pyraclostrobin, reference compound] |  |  |  |  |  |  |  |  |  |  |  | Observed efficacy (%) ([2]; 0.001 ppm): 17%; Observed efficacy (%) ([5]; 0.25 ppm): 19%; Observed efficacy (%) [11]: 8%; Observed efficacy (%) ([6]; 0.063 ppm): 27%; Observed efficacy (%) ([6]; 0.25 ppm): 60%; Observed efficacy (%) ([7]; 0.016 ppm): 52%; Observed efficacy (%) ([12]; 0.25 ppm): 0%; Observed efficacy (%) ([8]; 0.00025 ppm): 29%; Observed efficacy (%) ([8]; 0.001 ppm): 57%; Observed efficacy (%) ([9]; 0.25 ppm): 0%; Observed efficacy (%) ([10]; 0.016 ppm): 0%; Observed efficacy (%) ([10]; 0.063 ppm): 0%; Observed efficacy (%) ([10]; 0.25 ppm): 0% |
| COc1cnccc1CNS(=O)(=O)c1ccc(Oc2ccccn2)cc1 [Example 8] |  |  | 3% |  | 6% | 0% | 0% | 0% |  | 11% | 9% | relative growth of the pathogen [13]: at most 25% |
| Cc1nccc(CNS(=O)(=O)c2ccc(Oc3ncc(C(F)(F)F)cc3Cl)cc2)c1C [Example 27] |  | 65% |  | 47% |  |  |  | 0% | 22% | 21% | 31% | Observed efficacy (%) ([2]; 0.063 ppm): 65%; Observed efficacy (%) ([5]; 1 ppm): 1%; Observed efficacy (%) ([6]; 16 ppm): 45%; Observed efficacy (%) ([12]; 16 ppm): 13%; Observed efficacy (%) ([8]; 0.016 ppm): 58%; Observed efficacy (%) [14]: 56%; Observed efficacy (%) ([10]; 4 ppm): 0% |
